For one compound, Ki results are on record in BindingDB's records for PubMed 8394902 (Georgetown University, 1993).

This assay deals with Gamma-aminobutyric acid receptor subunit alpha-1 (Rattus norvegicus, UniProt P62813).

Molecules are shown by their SMILES. “And” between values parts separate entries of the source, which are not always exact repeats. Identical values can stand only once.

Sequence of Gamma-aminobutyric acid receptor subunit alpha-1 (P62813 whole entry): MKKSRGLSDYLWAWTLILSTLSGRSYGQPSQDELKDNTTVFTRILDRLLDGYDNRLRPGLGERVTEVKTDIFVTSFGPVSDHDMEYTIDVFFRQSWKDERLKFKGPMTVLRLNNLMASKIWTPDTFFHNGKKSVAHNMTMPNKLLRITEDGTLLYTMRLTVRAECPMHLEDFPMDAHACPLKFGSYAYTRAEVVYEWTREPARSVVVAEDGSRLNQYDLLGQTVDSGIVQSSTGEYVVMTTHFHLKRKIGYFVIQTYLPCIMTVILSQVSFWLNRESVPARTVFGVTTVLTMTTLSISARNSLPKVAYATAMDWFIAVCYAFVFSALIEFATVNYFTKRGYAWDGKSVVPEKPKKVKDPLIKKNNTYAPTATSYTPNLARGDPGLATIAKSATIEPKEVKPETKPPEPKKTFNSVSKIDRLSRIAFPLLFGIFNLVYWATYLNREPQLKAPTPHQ

As to `Cc1nnc2n1-c1ccc(Cl)cc1C(c1ccccc1)=NC2`, the inhibitory constant (Ki) was 21 nM and 65 nM.
